Like-named read-outs stand apart in the source and are kept apart here.
Columns and labels:
[1] = target: T1, HCV NS3/4A protease complex, BMS strain (UniProt P27958, C1454S/C1711G, species not given); experiment: FRET peptide assay to monitor HCV NS3/4A proteolytic activity (BMS strain); format: biochemical, HCV genotype 1a; settings: read-out: IC50 Range, HCV NS3/4A enzyme assay
T1 construct: other: HCV NS3/4A enzyme assay; class symbols; numeric values; fused on or other part: three-lysine solubilising tail at the C-terminus of NS4A; purified on Ni-NTA from the pET21b vector (His tag implied)
From the text: HCV NS3 protease complexes, derived from the BMS strain, H77 strain or J4L6S strain, were generated, as described below. These purified recombinant proteins were generated for use in a homogeneous assay (see below) to provide an indication of how effective compounds of the present disclosure would be in inhibiting HCV NS3 proteolytic activity.
Serum from an HCV-infected patient was obtained from Dr. T. Wright, San Francisco Hospital. An engineered full-length cDNA (compliment deoxyribonucleic acid) template of the HCV genome (BMS strain) was constructed from DNA fragments obtained by reverse transcription-PCR (RT-PCR) of serum RNA (ribonucleic acid) and using primers selected on the basis of homology between other genotype 1a strains. From the determination of the entire genome sequence, a genotype 1a was assigned to the HCV isolate according to the classification of Simmonds et al. (See P Simmonds, K A Rose, S Graham, S W Chan, F McOmish, B C Dow, E A Follett, P L Yap and H Marsden, J. Clin. Microbiol., 31(6), 1493-1503 (1993)). […] The infectious clones, H77 (1a genotype) and J4L6S (1b genotype) were obtained from R. Purcell (NIH) and the sequences are published in Genbank (AAB67036, see Yanagi, M., Purcell, R. H., Emerson, S. U. and Buldi, J. Proc. Natl. Acad. Sci. U.S.A. 94(16),8738-8743 (1997); AF054247, see Yanagi, M., St Claire, M., Shapiro, M., Emerson, S. U., Purcell, R. H. and Bukh, J, Virology 244 (1), 161-172. (1998)).
NS3/4A protease complex-containing fractions were pooled and loaded on a desalting column Superdex-S200 pre-equilibrated with buffer D (25 mM HEPES, pH 7.5, 20% glycerol, 300 mM NaCl, 0.2% TritonX-100, 10 mM βMB). Sample was loaded at a flow rate of 1 mL/min. NS3/4A protease complex-containing fractions were pooled and concentrated to approximately 0.5 mg/ml. The purity of the NS3/4A protease complexes, derived from the BMS, H77 and J4L6S strains, were judged to be greater than 90% by SDS-PAGE and mass spectrometry analyses. The enzyme was stored at −80° C., thawed on ice and diluted prior to use in assay buffer.
The purpose of this in vitro assay was to measure the inhibition of HCV NS3 protease complexes, derived from the BMS strain, H77 strain or J4L6S strain, as described above, by compounds of the present disclosure. This assay provides an indication of how effective compounds of the present disclosure would be in inhibiting HCV NS3 proteolytic activity.
In order to monitor HCV NS3/4A protease activity, an NS3/4A peptide substrate was used. The substrate was RET S1 (Resonance Energy Transfer Depsipeptide Substrate; AnaSpec, Inc. cat #22991)(FRET peptide), described by Taliani et al. in Anal. Biochem. 240(2):60-67 (1996). The sequence of this peptide is loosely based on the NS4A/NS4B natural cleavage site for the HCV NS3 protease except there is an ester linkage rather than an amide bond at the cleavage site. The peptide also contains a fluorescence donor, EDANS, near one end of the peptide and an acceptor, DABCYL, near the other end. The fluorescence of the peptide is quenched by […] resonance energy transfer (RET) between the donor and the acceptor, but as the NS3 protease cleaves the peptide the products are released from RET quenching and the fluorescence of the donor becomes apparent.
The peptide substrate was incubated with one of the three recombinant NS3/4A protease complexes, in the absence or presence of a compound of the present disclosure. The inhibitory effects of a compound were determined by monitoring the formation of fluorescent reaction product in real time using a Cytofluor Series 4000.
Assay buffer: 50 mM HEPES, pH 7.5; 0.15 M NaCl; 0.1% Triton; 15% Glycerol; 10 mM βME. Substrate: 2 μM final concentration (from a 2 mM stock solution in DMSO stored at −20° C.). HCV NS3/4A protease type 1a (1b), 2-3 nM final concentration (from a 5 μM stock solution in 25 mM HEPES, pH 7.5, 20% glycerol, 300 mM NaCl, 0.2% Triton-X100, 10 mM βME). […]

[2] = tested on: HCV replicon in HUH-7 cells; experiment: HCV replicon FRET assay; format: cell-based, HCV strain 1b; settings: Hepatitis C virus
From the text: An HCV replicon whole cell system was established as described by Lohmann V, Korner F, Koch J, Herian U, Theilmann L, Bartenschlager R., Science 285(5424):110-3 (1999). This system enabled us to evaluate the effects of our HCV Protease compounds on HCV RNA replication. Briefly, using the HCV strain 1b sequence described in the Lohmann paper (Assession number:AJ238799), an HCV cDNA was synthesized by Operon Technologies, Inc. (Alameda, Calif.), and the full-length replicon was then assembled in plasmid pGem9zf(+) (Promega, Madison, Wis.) using standard molecular biology techniques. The replicon consists of (i) the HCV 5′ UTR fused to the first 12 amino acids of the capsid protein, (ii) the neomycin phosphotransferase gene (neo), (iii) the IRES from encephalomyocarditis virus (EMCV), and (iv) HCV NS3 to NS5B genes and the HCV 3′ UTR. Plasmid DNAs were linearized with ScaI and RNA transcripts were synthesized in vitro using the T7 MegaScript transcription kit (Ambion, Austin, Tex.) according to manufacturer's directions. In vitro transcripts of the eDNA were transfected into the human hepatoma cell line, HUH-7. […] Resulting cell lines were characterized for positive and negative strand RNA production and protein production over time.
The HCV replicon FRET assay was developed to monitor the inhibitory effects of compounds described in the disclosure on HCV viral replication. HUH-7 cells, constitutively expressing the HCV replicon, were grown in Dulbecco's Modified Eagle Media (DMEM) (Gibco-BRL) containing 10% Fetal calf serum (FCS) (Sigma) and 1 mg/ml G418 (Gibco-BRL). Cells were seeded the night before (1.5×10^4 cells/well) in 96-well tissue-culture sterile plates. Compound and no compound controls were prepared in DMEM containing 4% FCS, 1:100 Penicillin/Streptomysin (Gibco-BRL), 1:100 L-glutamine and 5% DMSO in the dilution plate (0.5% DMSO final concentration in the assay). Compound/DMSO mixes were added to the cells and incubated for 4 days at 37° C. After 4 days, cells were first assessed for cytotoxicity using alamar Blue (Trek Diagnotstic Systems) for a CC50 reading. The toxicity of compound (CC50) was determined by adding 1/10th volume of alamar Blue to the media incubating the cells. After 4 h, the fluorescence signal from each well was read, with an excitation wavelength at 530 nm and an emission wavelength of 580 nm, using the Cytofluor Series 4000 (Perspective Biosystems). Plates were then rinsed thoroughly with Phosphate-Buffered Saline (PBS) (3 times 150 μl).

[3] = Huh-7, HCV replicon cell assay, numeric values, read-out: EC50 Range

| SMILES | IC50 ([1]; class symbols) | EC50 ([2]; Huh-7, read-out: EC50 Range) | IC50 ([1]; numeric values) | EC50 [2, 3] |
| --- | --- | --- | --- | --- |
| C=C[C@@H]1C[C@]1(NC(=O)[C@@H]1C[C@@H](Oc2ncc(OC)c3ccc(Cl)cc23)CN1C(=O)[C@@H](Nc1nc(-c2ccc(C(F)(F)F)cc2)cs1)C(C)(C)C)C(=O)NS(=O)(=O)C1CC1 [Example 10, (2S,4R)-4-(7-chloro-4-methoxyisoquinolin-1-yloxy)-N-((1R,2S)-1-(cyclopropylsulfonylcarbamoyl)-2-vinylcyclopropyl)-1-((S)-3,3-dimethyl-2-(4-(4-(trifluoromethyl)phenyl)thiazol-2-ylamino)butanoyl)pyrrolidine-2-carboxamide] | 1 to 20 nM | 1 to 50 nM | – | – |
| C=C[C@@H]1C[C@]1(NC(=O)[C@@H]1C[C@@H](Oc2ncc(OC)c3ccc(Cl)cc23)CN1C(=O)[C@@H](Nc1nc(-c2ccc3ccccc3c2)cs1)C(C)(C)C)C(=O)NS(=O)(=O)C1CC1 [Example 11] | 1 to 20 nM | 1 to 50 nM | – | – |
| C=C[C@@H]1C[C@]1(NC(=O)[C@@H]1C[C@@H](Oc2ncc(OC)c3ccc(Cl)cc23)CN1C(=O)[C@@H](Nc1nc(-c2ccc(OC)cc2)c(CC)s1)C(C)(C)C)C(=O)NS(=O)(=O)C1CC1 [Example 12] | 1 to 20 nM | 1 to 50 nM | – | – |
| C=C[C@@H]1C[C@]1(NC(=O)[C@@H]1C[C@@H](Oc2ncc(OC)c3ccc(Cl)cc23)CN1C(=O)[C@@H](Nc1nc(-c2ccc(F)cc2F)cs1)C(C)(C)C)C(=O)NS(=O)(=O)C1CC1 [Example 13] | 1 to 20 nM | 1 to 50 nM | – | – |
| C=C[C@@H]1C[C@]1(NC(=O)[C@@H]1C[C@@H](Oc2ncc(OC)c3ccc(Cl)cc23)CN1C(=O)[C@@H](Nc1nc(-c2ccccn2)cs1)C(C)(C)C)C(=O)NS(=O)(=O)C1CC1 [Example 14] | 1 to 20 nM | 1 to 50 nM | – | – |
| C=C[C@@H]1C[C@]1(NC(=O)[C@@H]1C[C@@H](Oc2ncc(OC)c3ccc(Cl)cc23)CN1C(=O)[C@@H](Nc1nc(-c2cccnc2)cs1)C(C)(C)C)C(=O)NS(=O)(=O)C1CC1 [Example 15] | 1 to 20 nM | 1 to 50 nM | – | – |
| C=C[C@@H]1C[C@]1(NC(=O)[C@@H]1C[C@@H](Oc2ncc(OC)c3ccc(Cl)cc23)CN1C(=O)[C@@H](Nc1nc(-c2ccncc2)cs1)C(C)(C)C)C(=O)NS(=O)(=O)C1CC1 [Example 16] | – | – | 1 nM | 6.57 nM |
| C=C[C@@H]1C[C@]1(NC(=O)[C@@H]1C[C@@H](Oc2ncc(OC)c3ccc(Cl)cc23)CN1C(=O)[C@@H](Nc1nc(-c2ccc(OC(F)(F)F)cc2)cs1)C(C)(C)C)C(=O)NS(=O)(=O)C1CC1 [Example 17] | – | – | 11 nM | 8.95 nM |
| C=C[C@@H]1C[C@]1(NC(=O)[C@@H]1C[C@@H](Oc2ncc(OC)c3ccc(Cl)cc23)CN1C(=O)[C@@H](Nc1nc(-c2ccc(Br)cc2)c(Br)s1)C(C)(C)C)C(=O)NS(=O)(=O)C1CC1 [Example 19] | 1 to 20 nM | 1 to 50 nM | – | – |
| C=C[C@@H]1C[C@]1(NC(=O)[C@@H]1C[C@@H](Oc2ncc(OC)c3ccc(Cl)cc23)CN1C(=O)[C@@H](Nc1nc(-c2ccccc2)cs1)C(C)(C)C)C(=O)NS(=O)(=O)C1CC1 [Example 20] | – | – | 3 nM | 3.9 nM |
| C=C[C@@H]1C[C@]1(NC(=O)[C@@H]1C[C@@H](Oc2ncc(OC)c3ccc(Cl)cc23)CN1C(=O)[C@@H](Nc1nc(-c2ccc(C#N)cc2)cs1)C(C)(C)C)C(=O)NS(=O)(=O)C1CC1 [Example 21] | 1 to 20 nM | 1 to 50 nM | – | – |
| C=C[C@@H]1C[C@]1(NC(=O)[C@@H]1C[C@@H](Oc2ncc(OC)c3ccc(Cl)cc23)CN1C(=O)[C@@H](Nc1nc(-c2cc(C(F)(F)F)cc(C(F)(F)F)c2)cs1)C(C)(C)C)C(=O)NS(=O)(=O)C1CC1 [Example 22] | 1 to 20 nM | 1 to 50 nM | – | – |
| C=C[C@@H]1C[C@]1(NC(=O)[C@@H]1C[C@@H](Oc2ncc(OC)c3ccc(Cl)cc23)CN1C(=O)[C@@H](Nc1nc(-c2ccc(C)cc2)cs1)C(C)(C)C)C(=O)NS(=O)(=O)C1CC1 [Example 23] | 20 to 200 nM | 1 to 50 nM | – | – |
| C=C[C@@H]1C[C@]1(NC(=O)[C@@H]1C[C@@H](Oc2ncc(OC)c3ccc(Cl)cc23)CN1C(=O)[C@@H](Nc1nc(-c2ccc(-c3ccccc3)cc2)cs1)C(C)(C)C)C(=O)NS(=O)(=O)C1CC1 [Example 24] | 20 to 200 nM | 1 to 50 nM | – | – |
| C=C[C@@H]1C[C@]1(NC(=O)[C@@H]1C[C@@H](Oc2ncc(OC)c3ccc(Cl)cc23)CN1C(=O)[C@@H](Nc1nc(-c2cccc(C#N)c2)cs1)C(C)(C)C)C(=O)NS(=O)(=O)C1CC1 [Example 25] | 1 to 20 nM | 1 to 50 nM | – | – |
| C=C[C@@H]1C[C@]1(NC(=O)[C@@H]1C[C@@H](Oc2ncc(OC)c3ccc(Cl)cc23)CN1C(=O)[C@@H](Nc1nc(-c2cnccn2)cs1)C(C)(C)C)C(=O)NS(=O)(=O)C1CC1 [Example 26] | 1 to 20 nM | 1 to 50 nM | – | – |
| C=C[C@@H]1C[C@]1(NC(=O)[C@@H]1C[C@@H](Oc2ncc(OC)c3ccc(Cl)cc23)CN1C(=O)[C@@H](Nc1nc(-c2ccc(Cl)c(C)c2)cs1)C(C)(C)C)C(=O)NS(=O)(=O)C1CC1 [Example 27] | – | – | 2 nM | 5.26 nM |
| C=C[C@@H]1C[C@]1(NC(=O)[C@@H]1C[C@@H](Oc2ncc(OC)c3ccc(Cl)cc23)CN1C(=O)[C@@H](Nc1nc(-c2ccc(OC)cc2OC)cs1)C(C)(C)C)C(=O)NS(=O)(=O)C1CC1 [Example 28] | 1 to 20 nM | 1 to 50 nM | – | – |
